Tests used:
[1] = target: GDP-bound NRAS wild-type protein (Homo sapiens, UniProt P01111); test: Binding to NRAS by surface plasmon resonance (SPR), Single Cycle Kinetics; details: for NRAS/KRAS (ratio of KD value with respect to GDP-bound NRAS wild-type protein to KD value with respect to KRAS): SPR KD ratio NRAS/KRAS, class symbols
[2] = target: GDP-bound HRAS wild-type protein (Homo sapiens, UniProt P01112); test: Binding to HRAS by surface plasmon resonance (SPR), Single Cycle Kinetics; details: for HRAS/KRAS (ratio of KD value with respect to GDP-bound HRAS wild-type protein to KD value with respect to KRAS): SPR KD ratio HRAS/KRAS, class symbols
[3] = SPR, GDP-bound NRAS wild-type protein vs GDP-bound KRAS wild-type protein
[4] = SPR, GDP-bound HRAS wild-type protein vs GDP-bound KRAS wild-type protein

Sequence of GDP-bound NRAS wild-type protein (P01111 whole entry): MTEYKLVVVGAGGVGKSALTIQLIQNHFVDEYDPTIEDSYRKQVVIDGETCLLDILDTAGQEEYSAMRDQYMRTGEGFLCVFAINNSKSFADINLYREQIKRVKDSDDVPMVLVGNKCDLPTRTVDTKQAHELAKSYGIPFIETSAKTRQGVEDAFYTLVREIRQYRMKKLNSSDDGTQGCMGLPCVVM
Sequence of GDP-bound HRAS wild-type protein (P01112 whole entry): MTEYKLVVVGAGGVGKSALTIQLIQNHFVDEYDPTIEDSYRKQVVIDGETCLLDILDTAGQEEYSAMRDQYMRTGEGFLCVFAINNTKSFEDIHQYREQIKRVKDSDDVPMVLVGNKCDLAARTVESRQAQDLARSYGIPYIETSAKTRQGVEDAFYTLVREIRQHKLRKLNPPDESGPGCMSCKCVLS

Structure (SMILES) | NRAS/KRAS (ratio of KD value for NRAS to KD value for KRAS) [1, 3] | HRAS/KRAS (ratio of KD value for HRAS to KD value for KRAS) [2, 4] | NRAS/KRAS (ratio of KD value with respect to GDP-bound NRAS wild-type protein to KD value with respect to KRAS) [1] | HRAS/KRAS (ratio of KD value with respect to GDP-bound HRAS wild-type protein to KD value with respect to KRAS) [2] | further results
CCCN1C(=O)CN(C)C(=O)CN(C)C(=O)[C@H]([C@@H](C)CC)NC(=O)[C@@H]2COCC=CC[C@@](C)(NC(=O)[C@@H]3C[C@@H](OCC)CN3C(=O)[C@H](CCc3cc(F)c(C(F)(F)F)c(F)c3)NC(=O)CN(C)C(=O)[C@@H]1Cc1ccc(C(F)(F)F)cc1)C(=O)N(C)[C@@H](C1CCCC1)C(=O)N(C)[C@H](C(=O)N1CCOCC1)CC(=O)N2C (stereo in doubt) [PP0903] | B (a compound having 3 or more and less than 10 is denoted as B) | C (A compound having a KD ratio of 0.1 or more and less than 3 is denoted as C) | – | – | –
CCC(CC)[C@H]1C(=O)N(C)[C@H](C(=O)N(C)C)CC(=O)N(C)[C@@H](COC)C(=O)N[C@@H]([C@@H](C)CC)C(=O)N(C)CC(=O)N(C)[C@H]2C/C=C\CCN(C2=O)[C@@H](Cc2ccc(C)cc2)C(=O)N(C)CC(=O)N[C@@H](CCc2ccc(Cl)c(Cl)c2)C(=O)N2C[C@H](OC(C)C)C[C@H]2C(=O)N(C)C2(CC(C)(C)C2)C(=O)N1C [PP2814] | – | – | AA (a compound having 20 or more is denoted as AA) | A (a compound having 10 or more and less than 20 is denoted as A) | –
CCCOC[C@H]1C(=O)N[C@@H]([C@@H](C)CC)C(=O)N(C2CC2)CC(=O)N(C)[C@H]2C/C=C\CCN(C2=O)[C@@H](CC2CCC(F)(F)CC2)C(=O)N(C)CC(=O)N[C@@H](CCc2ccc(C(F)(F)F)c(OC)c2)C(=O)N2C[C@H](OCC)C[C@H]2C(=O)N(C)C2(CCC2)C(=O)N(C)[C@@H](C2CCCC2)C(=O)N(C)[C@H](C(=O)N(C)C)CC(=O)N1C [PP2354] | A (a compound having 10 or more and less than 20 is denoted as A) | A (a compound having 10 or more and less than 20 is denoted as A) | – | – | –
C=CCCCCN(C)C(=O)[C@@H]1CC(=O)N(C)[C@@H](CC2CC2)C(=O)N[C@@H](CC=C)C(=O)N(C)CC(=O)N(C)[C@H]2C/C=C\CCN(C2=O)[C@@H](Cc2ccc(C(F)(F)F)cc2)C(=O)N(C)CC(=O)N[C@@H](CCc2cc(F)c(C(F)(F)F)c(F)c2)C(=O)N2C[C@H](OCC)C[C@H]2C(=O)NC2(CCC2)C(=O)N(C)[C@@H](C2CCCC2)C(=O)N1C [PP1554] | – | – | – | – | NRAS/KRAS (ratio of KD value for NRAS to KD value for KRAS) ([1]; SPR, GDP-bound NRAS wild-type protein vs GDP-bound KRAS wild-type protein, KD ratio class): A (a compound having 10 or more and less than 20 is denoted as A); HRAS/KRAS (ratio of KD value for HRAS to KD value for KRAS) ([2]; SPR, GDP-bound HRAS wild-type protein vs GDP-bound KRAS wild-type protein, KD ratio class): A (a compound having 10 or more and less than 20 is denoted as A)
CC[C@H](C)[C@@H]1NC(=O)[C@H](CC(C)C)N(C)C(=O)C[C@@H](C(=O)N(C)C)N(C)C(=O)[C@H](C2CCCC2)N(C)C(=O)C2(CCCC2)NC(=O)[C@@H]2CCCN2C(=O)[C@H](CCc2ccc(C(F)(F)F)c(Cl)c2)NC(=O)CN(C)C(=O)[C@H](Cc2ccc(C)cc2)N2CC=CCOC[C@H](C2=O)N(C)C(=O)CN(C)C1=O [PP0629] | – | – | – | – | NRAS/KRAS (ratio of KD value with respect to NRAS to KD value with respect to KRAS) [1, 3]: B (a compound having 3 or more and less than 10 is denoted as B); HRAS/KRAS (ratio of KD value with respect to HRAS to KD value with respect to KRAS) [2, 4]: C (A compound having a KD ratio of 0.1 or more and less than 3 is denoted as C)
CCO[C@@H]1C[C@H]2C(=O)NC3(CC(C)(C)C3)C(=O)N(C)[C@@H](CC(C)(C)C)C(=O)N(C)[C@H](C(=O)N(C)C)CC(=O)N(C)[C@@H](COC)C(=O)N[C@@H]([C@@H](C)CC)C(=O)N(C3CC3)CC(=O)N(C)[C@H]3C/C=C\CCN(C3=O)[C@@H](Cc3ccc(C(F)(F)F)cc3)C(=O)N(C)CC(=O)N[C@@H](CCc3ccc(Cl)c(Cl)c3)C(=O)N2C1 [PP2750] | – | – | AA (a compound having 20 or more is denoted as AA) | A (a compound having 10 or more and less than 20 is denoted as A) | –

— patent US20240158446A1, “CYCLIC COMPOUND HAVING SELECTIVE INHIBITORY ACTION ON KRAS OVER HRAS AND NRAS” (CHUGAI SEIYAKU KABUSHIKI KAISHA, priority 2021, published 2024)
